Assay results as given in patent US20070037783A1, “Migrastatin analogs and uses thereof” (priority 2003, published 2007).

Key:
[1] = tested on: HUVECs (human umbilical vein endothelial cells); assay: Boyden chamber cell migration assay with HUVECs; type: cell-based; details: chamber cell migration; average of three experiments; read-out: IC50 (HUVEC)
Protocol: (§1) Chamber Cell Migration Assay (Tables 4 and 6): Cell migrations were assayed with Boyden chambers [8.0 μm pore size, polyethylene terephthalate membrane, FALCON cell culture insert (Becton-Dickinson)]. 4T1 mouse breast tumor cells or HUVECs were trypsinized and counted. 300 μl of 5-10×10^4 cells in serum-free medium was added to the upper chamber and 500 μl of medium with 10% fetal bovine serum (FBS) was added to the lower chamber. The transwells were incubated for 6-8 h at 37° C. with different concentrations of chemical compound in both upper and lower chamber. Cells on the inside of the transwell inserts were removed with a cotton swab, and cells on the underside of the insert were fixed and stained. Photographs of three random regions were taken and the number of cells was counted to calculate the average number of cells that have transmigrated.

[2] = tested on: 4T1 tumors; assay: Effect on 4T1 primary tumor growth in mice; type: in vivo, BALB/c mice; details: 10 mg/kg i.p. daily Day 7-25; tumors measured Day 28
Protocol: Female BALB/c mice (6-8 week old) were purchased from the Jackson Laboratory (Bar Harbor, Me.). All mice were housed at the Weill Medical College of Cornell University Animal Facilities in accordance with the Principles of Animal Care (NIH publication no. 85-23, revised 1985). 4T1 tumor cells (1×10^5) were injected subcutaneously into the abdominal mammary gland area of mice in 0.1 ml of a single-cell suspension in phosphate buffered saline (PBS) on Day 0. The dosage of tumor implantation was empirically determined to give rise to tumor of ˜10 mm in diameter in untreated wild type mice in 21-23 days. On Day 7, when the tumors averaged in size ˜4-5 mm in diameter, migrastatin analogs or control PBS saline were given every day by intraperitoneal injection at 10 mg/kg or 20 mg/kg per mouse until Day 25. On Day 28, the mice were sacrificed. […] Primary tumors were measured using electronic calipers on the day when the mice were sacrificed. […] Numbers of metastatic 4T1 cells in lung were determined by the clonogenic assay.^63 In brief, lungs were removed from each mouse on Day 28, finely minced and digested in 5 ml of enzyme cocktail containing 1× PBS and 1 mg/ml collagenase type IV for 2 hours at 37° C. on a platform rocker. […]
Effect of migrastatin analogs on 4T1 tumor cell growth (See, FIG. 5). […] On Day 28, primary tumors were measured using electronic calipers. […]

[3] = tested on: 4T1 tumor lung metastasis; assay: 4T1 tumor lung metastasis in syngeneic mice (6-thioguanine clonogenic assay); type: in vivo, BALB/c mice; details: for lung metastasis colonies: lungs Day 28, mean and standard deviation
Text: Inhibition of metastasis of mouse breast tumors by migrastatin alogs in mice. 4T1 mouse breast tumor cell line was isolated from a single spontaneously arising mammary tumor from a BALB/BfC3H mouse (MMTV+).^62 The 4T1 tumor closely mimics human breast cancer in its anatomical site, immunogenecity, growth characteristics, and metastatic properties.^63 From the mammary gland, 4T1 tumor spontaneously metastasizes to a variety of target organs including the lung, bone, brain, and liver through primarily a hematogenous rout.^64
To assess the efficacy of therapeutic application of migrastatin analogs in the 4T1 murine mammary carcinoma models, we administered migrastatin analogs (macroketone and macrolactam) to BALB/c mice carrying the 4T1 tumors.
Female BALB/c mice (6-8 week old) were purchased from the Jackson Laboratory (Bar Harbor, Me.). All mice were housed at the Weill Medical College of Cornell University Animal Facilities in accordance with the Principles of Animal Care (NIH publication no. 85-23, revised 1985). 4T1 tumor cells (1×10^5) were injected subcutaneously into the abdominal mammary gland area of mice in 0.1 ml of a single-cell suspension in phosphate buffered saline (PBS) on Day 0. The dosage of tumor implantation was empirically determined to give rise to tumor of ˜10 mm in diameter in untreated wild type mice in 21-23 days. On Day 7, when the tumors averaged in size ˜4-5 mm in diameter, migrastatin analogs or control PBS saline were given every day by intraperitoneal injection at 10 mg/kg or 20 mg/kg per mouse until Day 25. On Day 28, the mice were sacrificed. This regiment of migrastatin analogs was well tolerated with no signs of overt toxicity. Every group included five mice. Primary tumors were measured using electronic calipers on the day when the mice were sacrificed. Tumor size was the square root of the product of two perpendicular diameters. Numbers of metastatic 4T1 cells in lung were determined by the clonogenic assay.^63 In brief, lungs were removed from each mouse on Day 28, finely minced and digested in 5 ml of enzyme cocktail containing 1× PBS and 1 mg/ml collagenase type IV for 2 hours at 37° C. on a platform rocker. After incubation, samples were filtered through 70 uM nylon cell strainers and washed twice with PBS. Resulting cells were suspended and plated serially diluted in 10 cm tissue culture dishes in medium RPMI1640 containing 60 uM thioguanine for clonogenic growth. 6-Thioguanine-resistant tumor cells formed foci after 14 days, at which time they were fixed with methanol and stained with 0.03% methylene blue for counting.
Treatment 4T1 tumor lung metaotmis in smgencie mice with Kigrastatin analogs (See, FIG. 4). 4T1 tumor cells (10^5) were injected s.c. in the abdominal mammary gland with 0.1 ml of a single-cell suspension. Macroketone or macrolactam at 10 mg/kg or 20 mg/kg was given i.p. on Day 7 when the tumor size was about 5 mm in diameter, and everyday until Day 25. On Day 28, the mice were sacrificed. Each group comprised five mice. Lung metastasis was measured by the 6-thiogunine clonogenic assay. The mean and standard deviation are presented. In the control group (daily PBS injection), there were 61300±18900 colonies.

[4] = tested on: 4T1 mouse breast tumor cells; assay: Boyden chamber cell migration assay with 4T1 tumor cells; type: cell-based; details: chamber cell migration, 6-8 h; average of three experiments; read-out: IC50 (4T1 tumor cells)
Protocol: The biological evaluation of the compounds (in terms of their ability to inhibit cell migration) was accomplished in a Boyden chamber cell migration assay. In this assay, mouse breast tumor cells (4T1 cells) or endothelial cells (HUVECs) are seeded on the upper chamber of a transwell insert. Growth factor-containing serum is added to the lower chamber.
as §1, with “The transwells were incubated for 6-8 h at 37° C. with different concentrations of chemical compound in both upper and lower chamber.” left out

[5] = tested on: 4T1 tumor cells; assay: Cell proliferation assay (MTT); details: MTT, 48 h; up to 20 μM
Protocol: Cell Proliferation Assay: 4×10^4 of 4T1 tumor cells in RPMI-1640 medium containing 10% FBS were seeded into wells of 96-multiwell plates (Becton-Dickinson) in the presence or absence of chemical compounds and then incubated at 37° C. for 48 h. An MTT kit (Cell Proliferation Kit I, Roche) (a colorimetric assay) was used to quantify cell proliferation and viability. The number of living cells, thus the total metabolic activity, directly correlates to the amount of purple formazan crystals formed (monitored by the absorbance).

[6] = tested on: 4T1 mouse breast tumor cells; assay: Wound-healing assay with 4T1 cells (FIG. 6); type: cell-based; details: with serum; 200 μM; overnight
Text: In the wound healing assay, standard scratches (i.e., wounds) were made through a confluent 4T1 cell layer. In the absence of serum, cells would not migrate across the empty space created by application of the scratch. Upon addition of serum containing migration-enabling factors, migration of 4T1 cells across the scratch was induced. Exposure to these cells to inventive compounds allowed the evaluation of the cell migration inhibitory activity of these compounds.
Wound-Healing Assay (See FIG. 6). 4T1 mouse breast tumor cells in RPMI-1640 medium containing 10% fetal bovine serum (FBS) were seeded into wells of 24-multiwell plates (Becton-Dickinson). After cells grew to confluence, wounds were made with sterile pipette tips. Cells were washed with Phosphate Buffered Saline (PBS) and refreshed with growth medium containing different concentrations of chemical compounds. After overnight incubation at 37° C., cells were fixed and photographed.

[7] = Mouse plasma stability study (HPLC); type: in vitro ADME
Protocol: Mouse Plasma Stability Studies (Table 5): HPLC conditions: The sample is injected and separated using an Inertsil ODS3 6u 3×150 mm column with a mobile phase of MeCN and water (50% for migrastatin) at a flow of 0.4 mL/min, monitored at 220 nm at 0.02 AUFS (the retention time for migrastatin is ca. 4 min, the identity of this peak was confirmed by mass spectral analysis). Incubation and sample preparation conditions: A solution (ca. 30 mM) of chemical compound (Table 5) in DMSO is prepared. 2 μL of the solution is added to a mixture containing 200 μL of mouse plasma and 800 μL of PBS. The resulting solution is put into a water bath at 37° C., and 100 μL of sample is withdrawn at 10, 20, 30, 45, and 60 min. The precipitate is removed by centrifugation and 20 μL of the supernatant is injected onto the HPLC.

SMILES	IC50 [1]	effect on growth of 4T1 primary tumors, in words [2]	inhibition of lung metastasis ([3]; 10 mg/kg i.p. daily Day 7-25)	lung metastasis colonies ([3]; 10 mg/kg i.p. daily Day 7-25)	inhibition of lung metastasis ([3]; 20 mg/kg i.p. daily Day 7-25)	lung metastasis colonies ([3]; 20 mg/kg i.p. daily Day 7-25)	IC50 [4]	cytotoxic or anti-proliferative effects on 4T1 cells, in words [5]	inhibition of 4T1 cell migration across the scratch, in words [6]	stability (t1/2, mouse plasma) ([7]; mouse plasma/PBS, 37° C., sampled up to 60 min)	stability (mouse plasma), in words ([7]; stable = intensity of HPLC signal unchanged over 60 min of incubation)
COC1C=CCCCCC(=O)CCC(C)=CC(C)C1O (stereo not shown) [macroketone (60), Macroketone]	12000 nM	minor effect on tumor growth	~94%	3875±2525 colonies	~99%	650±575 colonies	100 nM				
COC1C=CCCCCC(=O)OCC(C)=CC(C)C1O (stereo not shown) [macrolactone (48), Macrolactone]	125 nM						24 nM	did not have any cytotoxic or anti-proliferative effects up to 20 μM	almost completely inhibited cell migration across the scratch	<5 min	hydrolyzed rapidly
